Measurements reported in PMC10820527, “Synthesis, Characterization, and Investigation of Anti-Inflammatory and Cytotoxic Activities of Novel Thiourea Derivatives of Naproxen” (Pharmaceutics, 2023).

How the values were obtained:
Assay type in all cases: cell-based, human
[1] = system: HeLa; assay: MTT cytotoxicity assay, HeLa; conditions: for IC50: mean ± SD
Experimental: (§1) Three cancer cell lines (MDA-MB-231, HCT116 and HeLa; i.e., human breast cancer cells, human colorectal cancer cells, and human cervical cancer cells, respectively), and one non-malignant fibroblast MRC-5 cell line (control) were used in this study. The American Type Cell Collection (ATCC, Manassas, VA, USA) provided all examined cell lines. The cells were grown in a complete medium made up of high-glucose DMEM media supplemented with 10% fetal bovine serum and […] L-glutamine (both from Sigma-Aldrich, USA). The cells were cultured in 25 cc flasks (Thermo Fischer Scientific, Waltham, MA, USA) at 37 °C with 100% humidity in a 5% CO2 atmosphere.
(§2) The MTT test was used to assess the cytotoxicity of compounds 1–14 [44]. The cytotoxicity of naproxen was also investigated due to its clinical use and structural similarity. Throughout the exponential development period, cells were taken from culture flasks and counted, and 5 × 10^3 cells/well were planted into 96-well culture plates. Following that, the cell lines were treated with varying doses of the investigated chemicals (1–14), naproxen ([…]), and fresh complete media as a control. All evaluated cells were incubated for 24, 48, and 72 h at 37 °C in an environment containing 5% CO2 and 100% humidity. Following incubation, each well’s culture media was taken out, each well received an addition of MTT solution at a final concentration of 0.5 mg/mL, and the cells were left to incubate for an additional four hours. The MTT solution was then withdrawn carefully, and the formazan crystals were dissolved in DMSO. After shaking the plates for 10 min, absorbance at 595 nm was measured using a multiplate reader (Zenyth 3100, Anthos Labtec Instruments, Salzburg, Austria). All concentrations of the tested compounds were performed in three separate wells of the microtiter plates and in three separate experiments. The results were reported as a ratio to the control value, untreated cells. IC50 values were also determined using Microsoft Office Excel 2021. The percentage of viable cells was estimated by dividing the readout absorbance value in the wells containing treated cells by the average absorbance value measured in the wells containing untreated cells, and multiplying the result by 100 [44]. % of the viable cells = ((absorbance of treated cell-absorbance of blank)/(absorbance of untreated cell-absorbance of blank)) × 100(3)

[2] = system: HCT 116; assay: MTT cytotoxicity assay, HCT 116; conditions: for IC50: Homo sapiens, mean ± SD
Experimental: as §1, §2

[3] = system: proapoptotic protein Bax; assay: Assessment of apoptosis: active Bax expression (flow cytometry); conditions: HeLa cells, 24 h, IC50 concentration, p > 0.05
Experimental: (§3) The aim of this study was to determine the expression of proteins that play a key role in apoptosis. The level of expression of the proapoptotic protein Bax, antiapoptotic protein Bcl-2, and the percentage of cells containing active caspase-3 was evaluated. […] Additionally, HeLa cells were fixed, permeabilized, and rinsed with ice-cold PBS (Fixation and Permeabilization Kit, eBioscience, San Diego, CA, USA). The cells were treated for 15 min at room temperature with a 1:1000 Bcl-2 fluorescein isothiocyanate (FITC) primary antibody (mhbcl01, Life Technologies, Carlsbad, CA, USA) to stain them. For further labeling, permeabilized HeLa cells were incubated with primary antibodies for active-Bax (N20, sc-493; Santa Cruz Biotech Inc., Dallas, TX, USA) and cleaved caspase-3 (#9661, Cell signaling Technology, Danvers, MA, USA) at a ratio of 1:1000 for 30 min. […] With the FC500 (Beckman Coulter), fluorescence of at least 15,000 events/samples had been measured. Negative control antibodies that matched the isotype were used to normalize the fluorescence intensity. The degree of expression of these proteins was indicated by the mean fluorescence intensities for Bax and Bcl-2 (MFIs), which were computed as the ratio of raw mean channel fluorescence to isotype control levels, respectively. […]

[4] = system: active caspase-3; assay: Assessment of apoptosis: cells containing active caspase-3 (flow cytometry); conditions: HeLa cells, 24 h, IC50 concentration, p < 0.05
Experimental: as §3

[5] = system: HeLa cells; assay: Cell cycle analysis (PI staining, flow cytometry); conditions: 24 h, IC50 concentration, p < 0.05
Experimental: The next step in this study was to evaluate whether the rate of division of HeLa tumor cells slows down under the influence of tested compounds. To examine the potential effect of compounds 3 and 8 on the cell cycle of HeLa cells, the cell line was incubated and treated with previously calculated IC50 values. The control population of untreated cells was also harvested and washed in the above-mentioned manner. Furthermore, HeLa cells were harvested, washed with PBS, and fixed with 70% ethanol at +4 °C. Cells were agglomerated and finally resuspended in 1 mL PBS containing RNAse A (500 μg/mL). After 30 min of incubation, cells were stained with 5 μL PI (10 mg/mL PBS). After 15 min of incubation in the dark, the samples were examined using a Beckman Coulter FC500 flow cytometer.

[6] = system: antiapoptotic protein Bcl-2; assay: Assessment of apoptosis: Bcl-2 expression (flow cytometry); conditions: HeLa cells, 24 h, IC50 concentration, p > 0.05
Experimental: as §3

[7] = system: HeLa cells; assay: Annexin V/PI flow cytometry (type of cell death)
Experimental: (§4) The type of cell death induced by compounds 3 and 8 was determined by the annexin V–fluorescein isothiocyanate (FITC)/propidium iodide (PI) Apoptosis Kit (BD Biosciences, Franklin Lakes, NJ, USA). […] Furthermore, tested HeLa cells were trypsinized, washed in PBS, centrifuged, and resuspended in 100 μL of ice-cold binding buffer. The tested cells were then stained with both 10 μL of Annexin V-FITC and 20 μL of […], incubated for 15 min in the dark at room temperature, and 400 μL of binding buffer was added to each tube. The obtained samples were measured with a flow cytometer Cytomics FC500 (Beckman Coulter, Brea, CA, USA). In addition, the obtained data were analyzed using FlowJo V10 Software. Measurements were presented as the representative density plots of Annexin V-FITC and PI staining and the average values of three independent experiments.

[8] = Annexin V/PI flow cytometry (type of cell death); conditions: human; HeLa cells, 24 h, IC50 concentration; representative plot; read-out: viable cells (Q4, lower left quadrant)
Experimental: as §4

Compound	IC50 ([1]; Homo sapiens, HeLa, 24 h)	IC50 ([1]; Homo sapiens, HeLa, 48 h)	IC50 ([1]; Homo sapiens, HeLa, 72 h)	IC50 ([2]; HCT-116, 24 h)	IC50 ([2]; HCT-116, 48 h)	IC50 ([2]; HCT-116, 72 h)	Cytotoxic effect against the HCT 116 cell line (in words) [2]	Cytotoxic effect against HeLa cells (in words) [1]	IC50 ([1]; 72 h)	Amount of proapoptotic Bax (in words) [3]	Percentage of cells containing active caspase-3 (in words) [4]	Effect on cell cycle of HeLa cells (in words) [5]	Amount of the antiapoptotic protein Bcl-2 (in words) [6]	Type of HeLa cell death induced (in words) ([7]; 24 h of treatment, p < 0.05)	late apoptotic cells (Q2, upper right quadrant) ([7]; HeLa cells, 24 h, IC50 concentration, Annexin V-FITC/PI)	viability at 24 h [8]
COc1ccc2cc([C@H](C)C(=O)NC(=S)Nc3ccccc3OC)ccc2c1 [Compound 11, (S)-2-(6-methoxynaphthalen-2-yl)-N-((2-methoxyphenyl)carbamothioyl)propanamide]	> 200 µM	> 200 µM	> 200 µM	> 200 µM	> 200 µM	> 200 µM										
COC(=O)[C@H](Cc1c[nH]c2ccccc12)NC(=S)NC(=O)[C@@H](C)c1ccc2cc(OC)ccc2c1 [Compound 14, Methyl (((S)-2-(6-methoxynaphthalen-2-yl)propanoyl)carbamothioyl)tryptophanate]	> 200 µM	151 ± 14.2 µM	110 ± 11.5 µM	150 ± 7.6 µM	108 ± 12.7 µM	47.1 ± 5.4 µM	moderate cytotoxic effects									
COc1ccc2cc([C@H](C)C(=O)NC(=S)Nc3ccccc3C)ccc2c1 [Compound 10, (S)-2-(6-methoxynaphthalen-2-yl)-N-(o-tolylcarbamothioyl)propanamide]	> 200 µM	111 ± 8.3 µM	85.3 ± 9.1 µM	120 ± 8.8 µM	97.2 ± 6.8 µM	33.3 ± 5.5 µM	moderate cytotoxic effects	moderate cytotoxic effect								
COc1ccc2cc([C@H](C)C(=O)NC(=S)Nc3ccccc3)ccc2c1 [Compound 8, (S)-2-(6-methoxynaphthalen-2-yl)-N-(phenylcarbamothioyl)propanamide]	> 140 µM	97.6 ± 10.9 µM	9 ± 2 µM	> 200 µM	> 200 µM	101 ± 15.5 µM		strong cytotoxic effects	9.1 ± 2.5 µM	insignificantly changed	increased compared to the untreated cells	induced G0/G1 phase arrest	insignificantly changed	induced apoptosis	1–3%	49.2%
COC(=O)[C@H](Cc1ccccc1)NC(=S)NC(=O)[C@@H](C)c1ccc2cc(OC)ccc2c1 [Compound 13, Methyl (((S)-2-(6-methoxynaphthalen-2-yl)propanoyl)carbamothioyl)phenylalaninate]	> 200 µM	> 200 µM	> 200 µM	> 200 µM	> 200 µM	99.6 ± 4.9 µM										
COc1ccc2cc([C@H](C)C(=O)NC(=S)Nc3ccc(C)cc3)ccc2c1 [Compound 9, (S)-2-(6-methoxynaphthalen-2-yl)-N-(p-tolylcarbamothioyl)propanamide]	> 200 µM	> 200 µM	120 ± 8.7 µM	> 200 µM	105 ± 14.8 µM	52.9 ± 8.1 µM	moderate cytotoxic effects									
COc1ccc2cc([C@H](C)C(=O)NC(=S)Nc3ccccc3F)ccc2c1 [Compound 12, (S)-N-((2-fluorophenyl)carbamothioyl)-2-(6-methoxynaphthalen-2-yl)propanamide]	135 ± 16.8 µM	103 ± 9.5 µM	72.8 ± 6.9 µM	> 200 µM	159 ± 17.5 µM	68.8 ± 9.5 µM	moderate cytotoxic effects	moderate cytotoxic effect								
